{"source": "patent US20050233963A1", "about": "(priority 2000, published 2005)", "key": {"SN hantavirus": {"test_system": "SN hantavirus", "type": "cell-based, Sin Nombre virus"}, "hsp90": {"test_system": "hsp90", "assay": "UBP far-western analysis on hsp90", "type": "binding", "settings": "purified hsp90", "experimental": "The numbers to the left of the blots indicate the molecular weights in kilodaltons. The regions of UBP contained in each fusion construct are diagrammed below the blots. The right column summarizes the results: a plus symbol indicates binding and a minus symbol indicates no binding.\nWestern blots were performed using standard techniques. Briefly, 30 μg HeLa cytoplasmic extract or 20 ng of hsc70, hsp70, or hsp90 were denatured in 1×SDS sample buffer. The samples were loaded on a 10% polyacrylamide gel. Separated protein was transferred to nitrocellulose membranes. The membranes were blocked in 5% dry milk protein in TBS (20 mM Tris [pH 7.4], 100 mM NaCl) for 45 min. […] Primary antibody, either anti-hsp70 or hsp90 monoclonal antibodies, or anti-UBP rabbit polyclonal antibody was incubated with the blots at appropriate concentrations (1:1000 dilutions for each) in 5% milk protein in TBS for 2 hours at 4° C. with gentle rocking. The membranes were washed with TBS for 10 minutes. Secondary antibody, either alkaline phosphatase conjugated goat anti-mouse IgG or alkaline phosphatase conjugated goat anti-rabbit IgG diluted at 1:5000 in 5% Milk in TBS, was incubated with the blots for 2 hours at 4° C. with gentle rocking. […]"}, "HIV-1": {"test_system": "HIV-1", "settings": "overexpression in virus-producing cells (Callahan et al., 1998); cited from earlier work"}, "hsc70 [1]": {"biological_target": "T1, hsc70 (Bos taurus, UniProt P19120)", "T1 sequence (P19120 2-650 limits assumed)": "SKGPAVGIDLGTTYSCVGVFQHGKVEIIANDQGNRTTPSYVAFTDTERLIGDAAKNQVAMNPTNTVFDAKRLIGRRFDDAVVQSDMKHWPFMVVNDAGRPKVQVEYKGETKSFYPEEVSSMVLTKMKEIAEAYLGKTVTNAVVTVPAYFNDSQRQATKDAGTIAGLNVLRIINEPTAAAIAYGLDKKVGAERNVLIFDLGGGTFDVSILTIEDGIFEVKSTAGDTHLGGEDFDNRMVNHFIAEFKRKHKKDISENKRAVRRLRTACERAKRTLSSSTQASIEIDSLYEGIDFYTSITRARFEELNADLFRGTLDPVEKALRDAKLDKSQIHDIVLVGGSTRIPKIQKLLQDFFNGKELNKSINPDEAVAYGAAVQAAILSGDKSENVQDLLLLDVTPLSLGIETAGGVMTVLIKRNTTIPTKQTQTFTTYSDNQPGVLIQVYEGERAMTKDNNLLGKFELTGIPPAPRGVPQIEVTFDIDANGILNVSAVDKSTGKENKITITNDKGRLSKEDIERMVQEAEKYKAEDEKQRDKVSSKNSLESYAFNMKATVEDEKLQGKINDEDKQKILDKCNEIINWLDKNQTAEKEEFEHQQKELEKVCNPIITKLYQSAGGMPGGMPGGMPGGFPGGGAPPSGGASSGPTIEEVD", "assay": "Hsc70 ATPase assay", "type": "biochemical", "design": "purchased Stressgen", "settings": "28 nM hsc70, 0-176 nM UBP, 1 hr at 30° C.", "experimental": "ADP was separated from ATP by thin-layer chromatography and quantified using a phosphorimager. […] The data are represented as the percent ATP hydrolysis and are plotted as a function of time from 0-75 minutes.\nATPase assays were performed essentially as described (Liberek et al., 1991, J. Biol. Chem. 266:14491-14496). […] The reactions were carried out at 30° C. in ATPase buffer (30 mM 4-(-2 hydroxymethl)-1-piperazineethanesulfonic acid (HEPES) buffer pH 7.5, 40 mM KCl, 50 mM NaCl, 5 mM MgCl2, and 2 mM dithiothreitol). […] A 5 μl aliquot of each reaction was directly loaded onto a polyethylamine-cellulose (PEI)-thin layer sheet (Selecto Scientific, Suwanee, Ga.). The products were separated from the substrate by chromatography using 1 M formic acid/1 M LiCl (1:1, vol/vol) as a vehicle. The location of ADP and ATP on the plates was visualized by use of a Phosphorimager (Molecular Dynamics, San Jose, Calif.). […] Five μl aliquots of each reaction were taken at time points of 0, 15, 30, 45, 60, 75 minutes. The samples were analyzed as previously described. Data were quantified and expressed as the percent ATP hydrolysis."}, "hsc70 [2]": {"biological_target": "T1, hsc70", "assay": "UBP far-western analysis on hsc70", "type": "binding", "design": "purchased Stressgen", "settings": "GST fusions as probe", "text": "(§1) FIG. 13A: Thirty μg of HeLa cell lysate was separated by SDS-PAGE in three identical lanes, blotted to nitrocellulose and probed with either, no probe (none), GST alone, or GST-UBP. The far-western blot was then developed with anti-GST antibody to reveal bands which interact with UBP. The arrow to the right indicates a 70 kD band detected by the GST-UBP fusion. The numbers to the left of each blot represent molecular weights in kilodaltons. […] FIG. 13C, Samples from the GST-UBP pull down assay were analyzed by western blot for the presence hsc70. At the bottom of the gel, the contents of each reaction are indicated by the plus symbols. The NaCl concentration of the washing buffer (100, 200, 300, and 500 mM) is indicated at the top of each lane. The arrow to the right of the blot indicates the position of the hsc70 band.\nThe term “hsc70” is used when referring to both hsp70 and its nearly identical constitutive counterpart, hsc70. […] The numbers to the left of the blots indicate the molecular weights in kilodaltons. The diagram below the blots indicates regions of UBP contained in each fusion construct. The column to the right summarizes the results, where a plus symbol indicates binding and a minus symbol indicates no binding.\nWestern blots were performed using standard techniques. […]"}, "hsc70 [3]": {"biological_target": "T1, hsc70", "assay": "GST-UBP/hsc70 pull down assay with NaCl washes", "type": "binding", "design": "purchased Stressgen", "settings": "washes of increasing NaCl, up to 0.5 M NaCl", "text": "as §1\nEither GST or GST-UBP protein was incubated with a 100 μl bed volume of beads in a total volume of 300 μl of binding buffer at 4° C. with gentle rocking for 2 hours. The beads were washed and then blocked with 5% BSA in binding buffers. The beads were washed in binding buffer then incubated with 200 ng of hsc70 in binding buffer for 2 hours at 4° C. […] The samples were heated to 80° C. for 3 minutes then supernatants recovered by centrifugation were analyzed by western blot for hsc70."}, "hsc70 [4]": {"biological_target": "T1, hsc70", "assay": "Refolding of heat-denatured luciferase by hsc70", "settings": "28 nM hsc70, 1 mM ATP, 0 to 100 minutes at 30° C."}}}
{"molecule": "O=c1c(O)c(-c2ccc(O)c(O)c2)oc2cc(O)cc(O)c12", "note": "[quercetin]", "values": [{"measurement": "inhibition of viral RNA titers", "setting": "SN hantavirus", "result": 7.3, "unit": "fold"}, {"measurement": "viral RNA titers after heat shock", "setting": "SN hantavirus", "result": "did not have increased levels of viral RNA titers"}]}
{"molecule": "UBP: Viral protein U (Vpu) binding protein, cellular tetratricopeptide repeat (TPR) co-chaperone family member", "values": [{"measurement": "association with hsp90", "setting": "hsp90", "result": "could associate"}, {"measurement": "HIV-1 virion release", "setting": "HIV-1", "result": "significant reduction"}, {"measurement": "hsc70-mediated hydrolysis of ATP", "setting": "hsc70 [1]", "result": "negatively affected"}, {"measurement": "interaction with hsc70", "setting": "hsc70 [2]", "result": "does stably associate"}, {"measurement": "stability of UBP-hs70 interaction to NaCl washes", "setting": "hsc70 [3]", "result": "maintained even in the presence of relatively high salt concentrations"}, {"measurement": "inhibition of hs70-dependent refolding of luciferase", "setting": "hsc70 [4]", "result": "about 30%"}]}
